Reference: CN105367624A, “一种LLVV-Hemorphin-6肽的制备方法和用途” (Individual, priority 2015, dated 2016)
Where no end group is shown, it is not given here.

Tested on: 4T1细胞
Assay: In vitro antitumor evaluation: MTT cell viability assay in 4T1 cells
Assay type: cell-based
Details: 48 h

LLVVYPWTQR [LLVV-Hemorphin-6肽] was tested, and the “细胞抑制效果 (cell inhibition effect), peptide alone at high concentration” value (peptide 10 μM) was “存在一定的细胞抑制效果” and the “细胞抑制率 (cell inhibition rate), peptide alone” value (peptide 0.0001-10 μM) was “较低”.
